Measured values: patent US5008252A, “Process for inhibiting herpes simplex virus-specified thymidine kinase” (The University of North Carolina at Chapel Hill, priority 1987, dated 1991)
“Also recorded” adds a separate entry of the source.

Legend:
[1] = system: virus DNA synthesis; experiment: Virus DNA synthesis, isopycnic centrifugation of 32PO4-labeled DNA; type: cell-based; conditions: 5'-Et-dThd by itself; 32PO4-labeled virus DNA separated from host DNA
Text: By itself, 5'-Et-dThd had no effect on virus yield (Table II) and on virus DNA synthesis as determined from isopycnic centrifugation studies where ^32 PO4 -labeled virus DNA was separated from host DNA. Nucleoside analogs have been developed based on the "selective alternate substrate" strategy, and depend on viral dThd kinase for their antiviral activity. The effect of 5'-Et-dThd on the antiviral efficacy of five such analogs, ACV, 9-(1, 3-dihydroxy-2-propoxymethyl) guanine (DHPG), fluoroido-arabinosyl-cytosine (FIAC), BVDU and 5'-amino-dThd (5'-NH2 -dThd) has been examined. The effect of 5'-Et-dThd on the activity of the five agents was determined by the virus yield assay using HSV-1 (strain KOS)-infected HeLa BU cells. At 100 μM, 5'-Et-dThd reversed the antiviral activity of ACV (15 μM), DHPG (2 μM), FIAC (1 μM), BVDU (1 μM) and 5'-NH2 -dThd (500 μM)35-, 100-, 98-, 15- and 250-fold, respectively (Table II). […] The results further indicate that the use of 5'-Et-dThd in the prophylaxis/prevention of virus reactivation would require a sequential order when used with virus dThd kinase-dependent antiviral agents.

[2] = target: HSV-1 SC16 dThd kinase (Human herpesvirus 1, UniProt P06479); experiment: dThd kinase assay in vitro, enzyme extracts; type: biochemical, HSV-1 (strain SC16); conditions: enzyme extracts of infected HeLa BU cells, 100 μM dThd
HSV-1 SC16 dThd kinase, sequence (P06479 whole entry, looked up): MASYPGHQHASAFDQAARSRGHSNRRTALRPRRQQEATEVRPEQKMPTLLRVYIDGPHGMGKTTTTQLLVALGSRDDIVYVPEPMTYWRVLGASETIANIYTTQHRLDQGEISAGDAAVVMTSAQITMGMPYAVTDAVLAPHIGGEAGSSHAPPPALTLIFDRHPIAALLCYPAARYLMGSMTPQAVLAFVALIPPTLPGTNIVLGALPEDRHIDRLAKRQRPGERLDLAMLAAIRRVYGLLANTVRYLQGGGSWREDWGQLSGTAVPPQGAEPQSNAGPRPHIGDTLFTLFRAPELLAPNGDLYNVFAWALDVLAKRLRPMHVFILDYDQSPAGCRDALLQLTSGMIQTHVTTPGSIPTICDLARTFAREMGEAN
Protocol: Virus stocks. The viruses used were HSV-1 (strains KOS, SC16, B3 and Tr7) and HSV-2(strain 333). dThd kinase mutants of HSV (SC16), B3 and Tr7, were isolated in the presence of (E)-5-(2-bromovinyl)-2'-deoxyuridine (BVDU) at 10 μg/ml and ACV at 1 μg/ml, respectively (Darby, G., Field, H.J. & Salisbury, S. A. (1982) Nature (London) 289:81-83; Field, H.J & Neden J. (1982) Antiviral Res. 2:243254).
(§1) Enzyme purification, enzyme assays, IC50 and Ki determinations. The cellular cytosolic dThd kinase used to determine the Ki values was isolated from KB6B cells. The HSV-1 and HSV-2dThd kinases were extracted from dThd kinase-deficient HeLa BU cells infected with HSV-1 (strain KOS) and HSV-2(strain 333), respectively. All of the dThd kinases were purified using affinity column chromatography procedures described by Lee, L. S. and Cheng, Y.-C. (J. Biol. Chem. 251:2600-2604 (1976)). The dThd kinase assay used was the same as that described by Cheng, Y.-C. & Ostrander, M. (J. Biol. Chem. 251:2605-2610 (1976)). Incubations were conducted at 37° C. for 60 min and the Ki and 50% […] concentration (IC50) values were determined as described by Cheng, Y.-C. and Prusoff, W. H. (Biochem. Pharmacol. 22:3099-3108 (1976)).

[3] = target: dThd kinase from HSV-1 (KOS)-infected HeLa BU cells (Human alphaherpesvirus 1 strain KOS, UniProt P17402); experiment: Phosphate transfer assay (substrate test); type: biochemical, HSV-1 (strain KOS); conditions: 2 mM ATP
dThd kinase from HSV-1 (KOS)-infected HeLa BU cells, sequence (P17402 whole entry, looked up): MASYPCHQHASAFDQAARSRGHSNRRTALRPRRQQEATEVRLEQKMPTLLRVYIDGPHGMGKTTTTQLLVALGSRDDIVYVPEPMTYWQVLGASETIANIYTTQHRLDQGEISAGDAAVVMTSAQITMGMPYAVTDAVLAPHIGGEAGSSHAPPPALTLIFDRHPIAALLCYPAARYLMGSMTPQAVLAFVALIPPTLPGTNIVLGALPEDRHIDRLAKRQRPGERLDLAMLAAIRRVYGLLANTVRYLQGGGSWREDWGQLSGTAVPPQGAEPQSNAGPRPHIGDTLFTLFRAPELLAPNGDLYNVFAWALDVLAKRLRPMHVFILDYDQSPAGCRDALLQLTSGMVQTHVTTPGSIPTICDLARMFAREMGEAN

[4] = system: mammalian host DNA synthesis; experiment: Host DNA synthesis by 32PO4 incorporation; type: cell-based; conditions: 100 μM
[5] = target: HSV-1 (KOS) dThd kinase (Human alphaherpesvirus 1 strain KOS, UniProt P17402); experiment: dThd kinase assay in vitro; type: biochemical, HSV-1 (strain KOS)
HSV-1 (KOS) dThd kinase, sequence (P17402 whole entry, looked up): as above
Text: as §1

[6] = system: mammalian cell growth; experiment: Cell growth inhibition; type: cell-based
Protocol: Cell and virus growth inhibition. Cell growth inhibition and the virus yield assay were performed in accordance with the protocol described by Cheng, Y.-C., Grill, S.P., Ruth, J. and Bergstrom, D. E. (Antimicrob. Agents Chemother. 18:957-961 (1980)) with the exceptions that all studies were done using 5% dialyzed fetal bovine serum; the multiplicity of infection was 3 PFU/cell and Vero cells were used instead of CV-1 cells for titration in the virus yield assays.

[7] = target: T1, HSV-2 (333) dThd kinase (Human herpesvirus 2, UniProt P04407); experiment: dThd kinase assay in vitro; type: biochemical, HSV-2 (strain 333)
T1 construct: kinases were extracted from dThd kinase-deficient HeLa BU cells infected with HSV-1 (strain KOS) and HSV-2(strain 333); endogenous in cells; host or cells: HeLa BU cells (dThd kinase deficient) infected with HSV-2 (strain 333)
T1 sequence (P04407 whole entry): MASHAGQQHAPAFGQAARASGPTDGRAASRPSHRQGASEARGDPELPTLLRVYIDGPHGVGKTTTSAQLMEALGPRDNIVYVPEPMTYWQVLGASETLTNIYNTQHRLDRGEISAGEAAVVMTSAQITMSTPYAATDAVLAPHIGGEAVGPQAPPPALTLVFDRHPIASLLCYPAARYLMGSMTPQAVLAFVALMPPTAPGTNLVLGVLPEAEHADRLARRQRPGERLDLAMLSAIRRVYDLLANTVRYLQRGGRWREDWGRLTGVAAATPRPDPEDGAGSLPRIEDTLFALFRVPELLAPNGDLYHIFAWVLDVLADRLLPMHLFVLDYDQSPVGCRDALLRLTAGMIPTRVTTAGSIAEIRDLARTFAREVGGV
Text: as §1

[8] = target: HSV-1 (KOS) dThd kinase in infected HeLa BU cells (Human alphaherpesvirus 1 strain KOS, UniProt P17402); experiment: Intracellular dThd kinase activity ([14C]dThd phosphorylation); type: cell-based, HSV-1 (strain KOS)
HSV-1 (KOS) dThd kinase in infected HeLa BU cells, sequence (P17402 whole entry, looked up): as the sequence (P17402 whole entry, looked up) above
Protocol: (§2) Intracellular dThd kinase activity. HeLa S3 or HeLa BU cells (1.5×10^6 /ml) were mock infected or infected with HSV-1 or HSV-2at 3 PFU/cell and incubated at 37° C. for a 1 h adsorption period. The medium was then removed, and the cells were washed with growth medium and resuspended at a cell density of 5×10^5 cells/ml in RPMI 1640 medium supplemented with kanamycin (100 μg/ml) and 5% dialyzed fetal bovine serum. At 9 h post-HSV infection, [14C]dThd (0.16 μCi/ml; 1 μM dThd) and different amounts of 5'-Et-dThd were added to the medium depending on experimental conditions. At the end of the labeling period (1 h), the cells were pelleted by centrifugation, washed with phosphate-buffered-saline (PBS) and resuspended in a small volume of PBS. Aliquots were then pipetted directly onto DE81 discs which were immediately washed in 100% EtOH. The DE81 discs were washed two additional times in 100% EtOH, and then radioactivity associated with the discs was measured by scintillation counting in 5 ml of aqueous counting fluid. In this manner, total intracellular dThd kinase activity was determined from the sum of radioactive acid soluble dThd nucleotides plus the acid insoluble dTMP associated with DNA, both precipitated directly on the DE81 discs.

[9] = target: T2, HSV-2 (333) dThd kinase in infected HeLa BU cells (Human herpesvirus 2, UniProt P04407); experiment: as above; type: cell-based, HSV-2 (strain 333)
T2 construct: kinases were extracted from dThd kinase-deficient HeLa BU cells infected with HSV-1 (strain KOS) and HSV-2(strain 333); endogenous in cells; host or cells: HeLa BU cells (dThd kinase deficient) infected with HSV-2 (strain 333)
T2 sequence (P04407 whole entry): as the sequence (P04407 whole entry) above
Protocol: as §2

[10] = 10 μM 5'-Et-dThd, purified enzyme, 100 μM [14C]dThd

With 5'-ethynylthymidine [5'-Et-dThd] the “effect on virus DNA synthesis” value [1] was “no effect”, the IC50 [2] was 5 µM and the “substrate for virus dThd kinase (phosphorylation of the analogue)” value [3] was “not phosphorylated; also recorded: did not serve as a substrate”. The “effect on mammalian host DNA synthesis” value [4] was “no effect”, the “inhibition of dThd kinase activity” value [5, 10] was 50% and the Ki ([5]; HSV-1 KOS, affinity column-purified dThd kinase, ± standard deviation) was 0.09 µM. For the same substance, the IC50 ([5]; HSV-1 KOS, enzyme extracts of infected HeLa BU cells, 100 μM dThd) was 6 µM, the “type of inhibition (kinetic studies)” value ([5]; with respect to dThd) was “competitive inhibitor” and the “inhibition of mammalian cell growth” value [6] was “nor does the analog inhibit mammalian cell growth”. The “inhibition of dThd kinase activity” value [7, 10] was 25%, the Ki ([7]; HSV-2 333, affinity column-purified dThd kinase, ± standard deviation) was 0.38 µM and the IC50 ([7]; HSV-2 333, enzyme extracts of infected HeLa BU cells, 100 μM dThd) was 46 µM. For the same substance, the “type of inhibition (kinetic studies)” value ([7]; with respect to dThd) was “competitive inhibitor”, the “dThd phosphorylating activity, % of untreated control” value ([8]; 25 μM, HSV-1-infected HeLa BU, 9 h post infection, 1 h labeling) was 12.5% and the “inhibition of dThd kinase-mediated [14C]dThd phosphorylation” value ([8]; 100 μM, HSV-1-infected HeLa BU cells, 9 h post infection) was 97%. For the same substance, the IC50 ([8]; HSV-1 KOS, intracellular [14C]dThd phosphorylation, HeLa BU cells) was 3 µM, the “dThd phosphorylating activity, % of untreated control” value ([9]; 25 μM, HSV-2-infected HeLa BU, 9 h post infection, 1 h labeling) was 80% and the “inhibition of dThd kinase-mediated [14C]dThd phosphorylation” value ([9]; 100 μM, HSV-2-infected HeLa BU cells, 9 h post infection) was 50%. It also gave an IC50 ([9]; HSV-2 333, intracellular [14C]dThd phosphorylation, HeLa BU cells) of 100 µM.
